The nature of data set [1]: Pharmacokinetic determination in mice (PO 5 mg/kg, IV 1 mg/kg). The format is in vivo, C57BL/6J mice. The settings on record: male, C57BL/6J, mouse, plasma, C57 mice, PO administration, 5 mpk; for AUC(0-inf): read-out: Area under the curve AUC0-∞; for half-life: read-out: Half-life t1/2 (converted); for MRT: read-out: Mean residence time MRT; for Cmax: read-out: Plasma concentration Cmax; for Tmax: read-out: Time to peak tmax. Here is the method: 1. Experimental objective: C57BL/6J mice were used as test animals to study the pharmacokinetic behavior of the compounds of the present disclosure in mice (plasma) after oral and intravenous administration.
2.2 Test animals: C57 mice, male, purchased from Shanghai Bk Lab Animal Co., Ltd., with animal production license number (SCXK (Shanghai) 2013-0006 N0.311620400001794).
2.3 Drug preparation: Preparation of oral drug: 10% Solutol HS15
10 g of Solutol HS15 solid was weighed, dissolved in 90 mL of pure water, uniformly mixed, stirred, and ultrasonically treated to form a clear solution. The compound of the present disclosure was weighed and dissolved in this solution, uniformly shaken, and ultrasonically treated for 15 minutes to obtain a colorless clear solution with a concentration of 0.5 mg/mL. Preparation of intravenous drug: 5% DMSO+10% Solutol HS15+85% PBS, the compound of the present disclosure was weighed, 5% DMSO was first added on the basis of the proportion relative to the total volume of administration, and the mixture was vortexed and ultrasonically treated for 2 min until it was completely dissolved; 10% of Solutol HS15 was then added, and the mixture was vortexed and ultrasonically treated for 2 min until it was completely dissolved; and finally, 85% of PBS was added, and the mixture was vortexed, ultrasonically treated for 5 min, and filtered through a 0.22 um filter membrane to obtain a colorless and transparent clear solution with a concentration of 0.2 mg/mL.
2.4 Administration: 3 male C57 mice were fasted overnight and then respectively administered PO at a dose of 5 mg/kg and a volume of 10 mL/kg. 3 male C57 mice were fasted overnight and then respectively administered IV at a dose of 1 mg/kg and a volume of 5 mL/kg.
2.5 Sample collection: Before and after administration of mice, 0.04 mL of blood was collected from the orbit at 0.083 (iv), 0.25, 0.5, 1, 2, 4, 8, and 24 hours, and placed in EDTA-K2 test tubes, which was centrifuged at 6000 rpm at 4° C. for 6 min to separate plasma which was stored at −80° C.; and the […] were fed 4 h after administration.
2.6 Determination results: The final determination results were obtained by using an LCMS/MS method.
3. Experimental results: The main pharmacokinetic parameters were calculated using WinNonlin 6.1.

For another data set, the target named is T1, PCSK9 protein (Homo sapiens, UniProt Q8NBP7).
T1 construct: purchased Sino biology (Sino Biological) 29698-H08H
T1 sequence (Q8NBP7 153-692): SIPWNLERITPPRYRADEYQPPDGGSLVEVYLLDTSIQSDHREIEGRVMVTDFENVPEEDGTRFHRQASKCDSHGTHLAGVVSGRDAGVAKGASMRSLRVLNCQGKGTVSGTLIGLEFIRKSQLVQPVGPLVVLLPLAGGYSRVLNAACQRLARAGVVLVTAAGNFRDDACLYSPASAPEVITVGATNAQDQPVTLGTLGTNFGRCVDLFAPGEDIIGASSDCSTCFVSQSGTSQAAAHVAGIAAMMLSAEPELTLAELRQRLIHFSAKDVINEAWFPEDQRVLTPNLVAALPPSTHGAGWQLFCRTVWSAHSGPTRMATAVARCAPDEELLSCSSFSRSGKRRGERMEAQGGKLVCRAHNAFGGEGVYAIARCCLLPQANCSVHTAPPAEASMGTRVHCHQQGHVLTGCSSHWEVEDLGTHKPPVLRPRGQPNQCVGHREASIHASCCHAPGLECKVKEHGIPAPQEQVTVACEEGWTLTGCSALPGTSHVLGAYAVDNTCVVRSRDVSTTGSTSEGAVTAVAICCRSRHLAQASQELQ
Description: Binding ability to PCSK9 protein (HTRF). The settings on record: PCSK9-His, Alexa Fluor 647 probe compound. Here is the method: 1. Experimental objective: To detect the action of compounds to bind PCSK9 protein by an HTRF method.
3. Experimental data processing method: Four-parameter log(inhibitor) vs. response—Variable slope (four parameters) in XLit was used to perform non-linear fitting of the compound concentration and the corresponding inhibition rate, and IC50 was calculated.
(In general: Time-resolved FRET reads energy transfer from a long-lived donor to a nearby acceptor.)

The test system of data set [2] is PCSK9 secreted by HepG2 cells. Description: Effect on the concentration of PCSK9 secreted by HepG2 cells (ELISA). The format is cell-based. The settings on record: Homo sapiens, 48 hours, PCSK9 in culture medium by ELISA. Here is the method:
1. Experimental objective: To detect the inhibitory effect of the compounds on PCSK9.
2. Experimental method: • 1) HepG2 cell strain was cultured in the complete culture medium at 37° C., 5% CO2 to 70-90% confluence. • 2) The cells were digested and resuspended in the experimental culture medium, inoculated at 25,000 cells/well/200 μL in a 96-well cell culture plate, and cultured at 37° C. and 5% CO2 for 20-24 hours. • 3) The culture medium was removed from the cell culture plate, and the cell culture plate was washed once by adding 200 ul of the experimental culture medium to each well. • 4) Preparation of positive control compound and compound to be tested: the positive control compound and the compound to be tested were diluted on the compound plate. • 5) The diluted compound was added to the cell culture plate at 250 μL per well and incubated at 37° C. and 5% CO2 for 48 hours. • 6) The cell culture medium was collected at 200 μL per well and cryopreserved at −80° C. for later use. • 7) A sample of the cell culture medium was taken from the −80° C. cryopreservation condition, dissolved, vortexed, and centrifuged for later use. • 8) Preparation of standard curve: corresponding volumes of Dilution buffer were successively added to respective standard tubes, and in the order of the concentrations of 10, 5, 2.5, 1.25, 0.625, 0.313, 0.16, 0 ng/mL, the standard was diluted in series by taking the corresponding volume from the original tube or the last concentration tube. • 9) Preparation of washing liquid: 10x Wash buffer was diluted into 1x with Milli-Q for later use. • 10) According to the standard curve wells and sample wells set according to a plate map, 100 μL/well of the corresponding standards and culture medium samples were added to the wells, with 2 replicate wells. A self-adhesive seal was applied, the plate was placed on a plate shaker at room temperature, gently shaken, uniformly mixed, and incubated for 1 hour. • 11) The plate was placed on the plate washer, the washing liquid was set to 350 μL per well, and the plate was washed 4 times repeatedly. • 12) 100 μL/well of an HRP-conjugated detection antibody was added, a self-adhesive seal was applied, and the plate was placed on the plate shaker, well mixed uniformly, and incubated for 1 hour. • 13) The plate was placed on the plate washer, the washing liquid was set to 350 μL per well, and the plate was washed 4 times repeatedly. • 14) 100 μL/well of Substrate reagent was added, and the plate was placed in the dark, applied with a self-adhesive seal, placed on the plate shaker, well mixed uniformly, and incubated for 10-20 minutes. • 15) 100 μL of Stop solution (1N H2SO4) was added to each well and mixed uniformly. • 16) The optical density (OD) value in each well was measured in sequence at a wavelength of 450 nm by the microplate reader. Detection was carried out within 30 min after the reaction was stopped.
3. Experimental data processing method: After the OD values were read by the microplate reader, the OD value of the 0-concentration standard in the standard group was subtracted from the OD values of the standards, control group, and samples to obtain the actual OD values for these wells. A standard curve was plotted with Graphpad and the concentration of the sample was calculated. If the dilution was performed during the sample detection, the calculated sample concentration was necessarily multiplied by the corresponding dilution ratio in the final calculation, which was the actual concentration of the sample. Inhibition rate=(actual concentration in control−actual concentration in sample)/actual concentration in control*100. According to the inhibition rates corresponding to the different concentrations, IC50 was derived by Graphpad.

The term MRT denotes a mean duration of stay, worked out from the concentration-time curve. By Tmax is commonly meant the time from dosing to the highest level. As a reminder, the IC50 is the concentration needed to halve the response being measured. High values mean lower potency, low ones higher potency.

On to `N#Cc1cnc2c(c1)C(=O)N(c1ccc(N[C@H]3CC[C@H](Nc4nc5cc(C(F)(F)F)ccn5n4)C3)nc1)C2` [Example 65, 5-carbonyl-6-(6-(((1S,3S)-3-((7-(trifluoromethyl)-[1,2,4]triazolo[1,5-a]pyridin-2-yl)amino)cyclopentyl)amino)pyridin-3-yl)-6,7-dihydro-5H-pyrrolo[3,4-b]pyridine-3-carbonitrile], for which, in data set [1], the AUC(0-inf) came out at 70000 ng·h/mL, the half-life is 4 h, the MRT is 5.8 h and the Cmax came to 7870 ng/mL. Also, the Tmax in data set [1] stood at 4 h. For the same molecule, the 50% inhibitory concentration (IC50) on PCSK9 protein was determined as 13.9 nM. The molecule further gave an IC50 in data set [2] of 12800 nM.
For `Cc1cc2c(cn1)C(=O)N(c1ccc(N[C@H]3CC[C@H](Nc4nc5cc(C(F)(F)F)ccn5n4)C3)nc1)C2` [Example 89, 6-methyl-2-(6-(((1S,3S)-3-((7-(trifluoromethyl)-[1,2,4]triazolo[1,5-a]pyridin-2-yl)amino)cyclopentyl)amino)pyridin-3-yl)-1,2-dihydro-3H-pyrrolo[3,4-c]pyridin-3-one], in data set [1], the AUC(0-inf) turned out to be 34300 ng·h/mL, the half-life was 2.7 h, the mean residence time MRT came out at 3.1 h and the Cmax stood at 10300 ng/mL. The Tmax in data set [1] was found to be 0.25 h. At PCSK9 protein, this molecule displayed an IC50 of 10.5 nM. In addition, the midpoint of inhibition in data set [2], the IC50, lay at 4000 nM.
In the case of `[2H]C1([2H])c2ncccc2C(=O)N1c1ccc(N[C@H]2CC[C@H](Nc3nc4cc(C(F)(F)F)ccn4n3)C2)nc1` [Example 114], in data set [1], the AUC(0-inf) stood at 7230 ng·h/mL, the half-life is 3.1 h, the MRT stood at 3 h and the Cmax was determined as 2350 ng/mL. In data set [1], the Tmax is 0.5 h. This molecule registered an IC50 at PCSK9 protein of 8.9 nM. The same molecule gave an IC50 in data set [2] of 14700 nM.
In the case of `N#Cc1cnc2c(c1)C(=O)N(c1ccc(N[C@H]3CC[C@H](Nc4nc5cc(OC(F)F)ccn5n4)C3)nc1)C2` [Example 123], in data set [1], the AUC(0-inf) was determined as 62200 ng·h/mL, the half-life was 2.4 h, the MRT amounted to 4.3 h and the Cmax is 9920 ng/mL. Further, in data set [1], the Tmax came to 2 h. At PCSK9 protein, this molecule had an IC50 of 11.5 nM. For the same molecule, the half-inhibitory concentration (IC50) in data set [2] is 5200 nM.
`N#Cc1ccc2c(n1)CN(c1ccc(N[C@H]3CC[C@H](Nc4nc5cc(OC(F)F)ccn5n4)C3)nc1)C2=O` [Example 132]: in data set [1], the AUC(0-inf) amounted to 30600 ng·h/mL, the half-life is 2.9 h, the MRT amounted to 3 h and the Cmax was determined as 8570 ng/mL. Besides, the Tmax in data set [1] amounted to 0.5 h. On PCSK9 protein, this molecule had an IC50 of 10 nM. The IC50 in data set [2] was found to be 6500 nM.
As for `O=C1c2ccc(C(F)(F)F)nc2CN1c1ccc(N[C@H]2CC[C@H](Nc3nc4cc(OC(F)F)ccn4n3)C2)nc1` [Example 133], in data set [1], the AUC(0-inf) was 86800 ng·h/mL, the half-life is 5 h, the MRT is 5.8 h and the Cmax turned out to be 11000 ng/mL. Further, in data set [1], the Tmax is 2 h. For the same molecule, at PCSK9 protein, the IC50 was 7.8 nM. This molecule also came in with an IC50 in data set [2] of 400 nM.
`O=C1c2ncc(F)cc2CN1c1cnc(N[C@H]2CC[C@H](Nc3nc4cc(C(F)(F)F)ccn4n3)C2)c(F)c1` [Example 145]: in data set [1], the AUC(0-inf) worked out at 22600 ng·h/mL, the half-life was 3.3 h, the MRT came out at 3.1 h and the Cmax is 6310 ng/mL. In addition, the Tmax in data set [1] is 1 h. The molecule also displayed an IC50 on PCSK9 protein of 10.6 nM. Also, the IC50 in data set [2] came out at 2900 nM.
Consider `N#Cc1ccnc2c1C(=O)N(c1ccc(N[C@H]3CC[C@H](Nc4nc5cc(C(F)(F)F)ccn5n4)C3)nc1)C2` [Example 163], for which the IC50 on PCSK9 protein worked out at 6.3 nM; in data set [2], 10800 nM.

Source of the values: patent US12612403B2, “Nitrogen-containing heterocyclic derivative inhibitor, and preparation method therefor and use thereof” (SHANGHAI HANSOH BIOMEDICAL CO., LTD., priority 2024, dated 2026).
